Paper PMC11443485, “Euphane and Tirucallane Triterpenes with Trypanocidal Activity from Euphorbia desmondii” (Journal of Natural Products, 2024)
Where two headings read alike, the source gives them in different places.

Key:
[1] = test system: T. cruzi epimastigotes (Y strain); experiment: Trypanocidal activity against T. cruzi epimastigotes, Cell Proliferation Kit II (XTT) assay; type: cell-based, Trypanosoma cruzi; conditions: for Selectivity Index: T. cruzi epimastigotes over the host cell (RAW264.7 macrophages); for IC50: epimastigotes, Y strain, 72 h at 28 °C, XTT, read-out: T. cruzi epimastigote WT-Y IC50; for Increase of the proliferation of the epimastigotes: at the lower micromolar concentrations, trypanocidal at higher concentrations; for Effect on T. cruzi epimastigote proliferation (Figure S130): mean ± SD of three independent experiments each in triplicates
Method: Epimastigotes of T. cruzi [Y strain (ATCC 50832)] were maintained in weekly passages in a liver infusion tryptose (LIT) medium supplemented with 10% heat-inactivated fetal bovine serum (hiFBS) at 28 °C, as described previously.[33] The epimastigote cultures in the logarithmic-growth phase (1–5 × 10^7 parasites/mL) were used for the experiments unless stated otherwise. The green fluorescent protein (GFP)-overexpressing epimastigotes were generated by transfection using pTREX-n-eGFP, a gift from Rick Tarleton (Addgene plasmid # 62544; http://n2t.net/addgene:62544;RRID:Addgene_62544), as described previously. The GFP-expressing epimastigotes were cultured in LIT medium supplemented with 10% hiFBS and 500 μg/mL G418.
(§1) To assess the selectivities of the isolated compounds, their trypanocidal activities against the epimastigotes were assessed by the Cell Proliferation Kit II (XTT) assay, as previously described.[11] Briefly, 1.5 × 10^5 epimastigotes were seeded per well in 96-well plates. The compounds were added at a single concentration, 10 μM (for the initial screening experiments) or six concentrations ranging from 10–0.3 μM for 72 h at 28 °C. In all the experiments, benznidazole was used as the positive control. Following the incubation period, the plates were examined under a microscope for sterility and growth of controls. To the plates, 50 μL of XTT and PMS (Phenazine methosulfate, Sigma-Aldrich, MO, USA) solution (XTT and PMS at 0.5 and 0.025 mg/mL, respectively) was added, and the plates were then incubated at 28 °C for 2.5 h. The parasites were fixed by the addition of 50 μL of MeOH for 15 min before the absorbance was measured at 490 nm on a Tecan plate reader. Results were expressed as percentage cell viability relative to vehicle control or IC50 values calculated by GraphPad Prism version 8.0. All assessments were performed in triplicate in at least two independent experiments.

RAW264.7 macrophages = experiment: Cytotoxicity in RAW264.7 macrophages (mammalian host cells); type: cell-based; conditions: host cell cytotoxicity, read-out: RAW 264.7 IC50
Method: [The procedure below names another organism; the source lists this organism under the same test.] To biologically characterize the isolated triterpenoids for their trypanocidal activities, their cytotoxicities in RAW264.7 macrophages (mammalian host cells) and T. cruzi epimastigotes were analyzed.
as §1, with “The compounds were added at a single concentration, 10 μM (for the initial screening experiments) or six concentrations ranging from 10–0.3 μM for 72 h at 28 °C.” left out

[2] = test system: T. cruzi amastigotes in infected RAW264.7 cells; experiment: Amastigote replication in host cells: FACS quantitation of GFP parasites released from infected RAW264.7 cells; type: cell-based, Trypanosoma cruzi; conditions: GFPY parasite release from infected RAW264.7 cells, FACS after 6 days, mean ± SD of three independent experiments
Method: Figure 3 Inhibition activity of 1 against amastigote replication in the host cells. […] (A) Representative brightfield microscopic image of CCL39 fibroblasts infected with Trypanosoma cruzi with amastigotes (arrow). […] (C) Inhibition curves of compound 1 and the positive control, benznidazole, of the GFPY parasite release from the infected RAW264.7 cells were measured by fluorescence-activated cell sorting (FACS) after 6 days.
Fluorescence-activated cell sorting (FACS)-based quantitation of released parasites from infected RAW264.7 cells: The host cells were seeded in 24-well plates at densities of 40,000 and 10,000 cells/mL. The cells were allowed to adhere for 24 h, after which they were infected with trypomastigotes that were harvested by the swim-out procedure described above at a multiplicity of 10. On the next day, the noninternalized trypomastigotes were washed off, and fresh RPMI with 2% fetal bovine serum was added to the wells along with the test substance. In all of the experiments, the screening was performed in triplicate, including tests with DMSO and benznidazole controls. The released parasites were fixed using 4% paraformaldehyde in phosphate-buffered saline for 1 h, after which the samples were analyzed by FACS (BD Biosciences), as described previously.[11]

[3] = Trypanosoma cruzi, RAW264.7, 144 h

Row | Compound | Selectivity Index [1] | IC50 ([1]; Trypanosoma cruzi) [µM] | IC50 (RAW264.7 macrophages; Mus musculus) [µM] | Increase of the proliferation of the epimastigotes [1] | IC50 [1] [µM] | Effect on T. cruzi epimastigote proliferation (Figure S130) [1] | IC50 (RAW264.7 macrophages) [µM] | IC50 ([2]; listed as desmondiin A) [µM] | IC50 [2, 3] [µM] | IC50 [2] [µM]
1 | CC(=O)CCC[C@H](C)[C@@H]1CC[C@]2(C)C3=C(CC[C@@]12C)[C@@]1(C)CC[C@H](O)C(C)(C)[C@@H]1CC3=O [Compound 3, Desmondiin D] | 7.8 | 4 | 31 | – | – | – | – | – | – | –
2 | 3β-hydroxy-27-nor-tirucalla-8-en-7,11,25-trione [Compound 12] | 6.6 | – | – | 15–30% | 3.7 | significant increase | 24.4 | – | – | –
3 | C[C@H](C/C=C/C(C)(C)OO)[C@@H]1CC[C@]2(C)C3=C(CC[C@@]12C)[C@@]1(C)CC[C@H](O)C(C)(C)[C@@H]1CC3=O [Compound 1, (23E)-25-hydroperoxyeupha-8,23-diene-3β-ol-7-one] | 8.5 | 4.5 | 38.1 | – | – | – | – | 2.4 ± 0.3 | 2.5 ± 0.3 | –
4 | C[C@@H](C/C=C/C(C)(C)OO)[C@@H]1CC[C@]2(C)C3=C(C(OO)C[C@@]12C)[C@@]1(C)CC[C@H](O)C(C)(C)[C@@H]1CC3=O (stereo partly drawn) [Compound 5, (23E)-11,25-dihydroperoxytirucalla-8,23-dien-3β-ol-7-one] | 5.4 | 3.4 | 18.4 | 15–30% | – | significant increase | – | – | – | –
5 | CC(C)=CCC[C@@H](C)[C@@H]1CC[C@]2(C)C3=C(C(=O)C[C@@]12C)[C@@]1(C)CC[C@H](O)C(C)(C)[C@@H]1C[C@H]3O [Compound 8, eupha-8,24-dien-3β,7α-diol-11-one] | 5.8 | 4.9 | 28.4 | 15–30% | – | significant increase | – | – | – | –
6 | C/C(C=O)=C\CC[C@H](C)[C@@H]1CC[C@]2(C)C3=C([C@@H](O)C[C@@]12C)[C@@]1(C)CC[C@H](O)C(C)(C)[C@@H]1CC3=O [Compound 7, Desmondiin H] | 6.4 | 3.7 | 23.5 | – | – | – | – | – | – | –
7 | CC(C)C(=O)CC[C@@H](C)[C@@H]1CC[C@]2(C)C3=C(CC[C@@]12C)[C@@]1(C)CC[C@H](O)C(C)(C)[C@@H]1CC3=O [Compound 2, eupha-8-ene-3β-ol-7,24-dione] | 6.3 | 5 | 31.5 | – | – | significant increase | – | – | – | –
8 | O=C(Cn1ccnc1[N+](=O)[O-])NCc1ccccc1 [benznidazole, reference compound] | – | – | – | – | – | – | – | – | 3.6 ± 0.4 | 3.2 ± 0.5
